From ChEMBL document CHEMBL3351955, “Identification of potent and selective hydantoin inhibitors of aggrecanase-1 and aggrecanase-2 that are efficacious in both chemical and surgical models of osteoarthritis” (J Med Chem, 2014)

What was measured:
[1] = target: T1, A disintegrin and metalloproteinase with thrombospondin motifs 5 (Homo sapiens, UniProt Q9UNA0); experiment: Inhibition of human ADAMTS-5 using VQTVTWPDMELPLPRNITEGEARGSVILTVKPIFEVSPSPLKG peptide substrate by AlphaScreen assay in presence of 50% rat plasma
T1 sequence (Q9UNA0 whole entry): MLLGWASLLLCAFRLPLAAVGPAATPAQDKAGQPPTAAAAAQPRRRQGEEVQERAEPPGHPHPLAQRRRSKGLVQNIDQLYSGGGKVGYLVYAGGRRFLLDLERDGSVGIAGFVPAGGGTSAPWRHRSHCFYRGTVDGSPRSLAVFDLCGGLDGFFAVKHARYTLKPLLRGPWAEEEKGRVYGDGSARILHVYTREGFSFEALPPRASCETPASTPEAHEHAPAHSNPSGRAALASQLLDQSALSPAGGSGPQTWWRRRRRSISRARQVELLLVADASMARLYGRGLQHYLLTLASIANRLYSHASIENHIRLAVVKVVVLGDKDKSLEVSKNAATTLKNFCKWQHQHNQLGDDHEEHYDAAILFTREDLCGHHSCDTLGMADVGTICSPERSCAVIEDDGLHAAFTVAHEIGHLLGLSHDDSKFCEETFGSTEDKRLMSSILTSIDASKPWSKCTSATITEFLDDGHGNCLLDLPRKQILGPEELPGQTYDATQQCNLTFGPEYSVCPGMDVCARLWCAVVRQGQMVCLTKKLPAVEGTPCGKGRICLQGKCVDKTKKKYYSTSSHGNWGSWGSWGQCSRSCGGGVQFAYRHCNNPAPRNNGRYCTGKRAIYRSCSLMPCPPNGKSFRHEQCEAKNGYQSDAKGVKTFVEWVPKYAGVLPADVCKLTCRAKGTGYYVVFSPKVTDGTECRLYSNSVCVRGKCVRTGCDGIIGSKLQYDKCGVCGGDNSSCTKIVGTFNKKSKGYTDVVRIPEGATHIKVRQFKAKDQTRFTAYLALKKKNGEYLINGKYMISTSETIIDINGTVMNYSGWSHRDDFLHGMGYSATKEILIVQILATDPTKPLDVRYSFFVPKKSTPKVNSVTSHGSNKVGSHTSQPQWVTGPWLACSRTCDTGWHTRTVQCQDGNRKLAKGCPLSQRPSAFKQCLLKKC

[2] = target: T2, A disintegrin and metalloproteinase with thrombospondin motifs 4 (Homo sapiens, UniProt O75173); experiment: Inhibition of human ADAMTS-4 using VQTVTWPDMELPLPRNITEGEARGSVILTVKPIFEVSPSPLKG peptide substrate by AlphaScreen assay
T2 sequence (O75173 whole entry): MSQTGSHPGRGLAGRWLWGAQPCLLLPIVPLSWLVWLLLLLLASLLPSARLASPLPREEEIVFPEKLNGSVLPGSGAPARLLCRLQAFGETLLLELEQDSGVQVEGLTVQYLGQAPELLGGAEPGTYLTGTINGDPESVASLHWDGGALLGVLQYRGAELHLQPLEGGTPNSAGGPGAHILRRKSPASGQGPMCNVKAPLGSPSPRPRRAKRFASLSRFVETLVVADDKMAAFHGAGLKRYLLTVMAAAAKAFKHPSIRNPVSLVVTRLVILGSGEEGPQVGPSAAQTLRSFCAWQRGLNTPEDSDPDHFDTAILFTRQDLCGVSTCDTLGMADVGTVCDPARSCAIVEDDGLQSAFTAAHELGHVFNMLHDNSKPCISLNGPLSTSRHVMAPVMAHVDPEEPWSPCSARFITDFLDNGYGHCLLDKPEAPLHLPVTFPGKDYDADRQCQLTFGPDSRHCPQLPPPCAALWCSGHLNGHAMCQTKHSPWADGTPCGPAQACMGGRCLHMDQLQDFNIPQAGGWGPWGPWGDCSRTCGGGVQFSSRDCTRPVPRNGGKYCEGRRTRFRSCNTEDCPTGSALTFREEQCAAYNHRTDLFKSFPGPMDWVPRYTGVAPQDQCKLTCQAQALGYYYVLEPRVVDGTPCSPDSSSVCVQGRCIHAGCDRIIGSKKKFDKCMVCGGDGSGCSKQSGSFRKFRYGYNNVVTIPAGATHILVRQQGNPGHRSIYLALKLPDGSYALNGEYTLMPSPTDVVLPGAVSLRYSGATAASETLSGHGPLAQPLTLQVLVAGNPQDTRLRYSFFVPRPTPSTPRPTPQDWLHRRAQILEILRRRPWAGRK

[3] = target: T1, A disintegrin and metalloproteinase with thrombospondin motifs 5; experiment: Inhibition of human ADAMTS-5 using VQTVTWPDMELPLPRNITEGEARGSVILTVKPIFEVSPSPLKG peptide substrate by AlphaScreen assay
[4] = Oral bioavailability in Sprague-Dawley rat; assay type: ADME, organism-based; conditions: in vivo
[5] = Metabolic stability in human liver microsomes assessed as compound degradation after 30 mins by LC-MS analysis; assay type: ADME, Microsome; conditions: read-out: Drug degradation
Stromelysin-1 = Stromelysin-1 (Homo sapiens, UniProt P08254); experiment: Inhibition of human MMP3 using Mca-PQG1 peptide substrate assessed as substrate cleavage after 2 to 4 hrs
[6] = Metabolic stability in rat liver microsomes assessed as compound degradation after 30 mins by LC-MS analysis; assay type: ADME, Microsome; conditions: read-out: Drug degradation
[7] = Half life in Sprague-Dawley rat at 10 mg/kg, po; assay type: ADME, organism-based; parameters: dose 10 mg/kg, route oral; conditions: in vivo
Rattus norvegicus [8] = experiment: Reduction in ADAMTS-4/ADAMTS-5-mediated aggrecan cleavage products in po dosed Lewis rat MIA model assessed as aggrecanase-cleaved fragments treatment starting from day 3 and single dose given on day 7 followed by animal sacrificed 4 hrs later by NITEGE sandwich ELISA assay; assay type: functional
Collagenase 3 = Collagenase 3 (Homo sapiens, UniProt P45452); experiment: Inhibition of human MMP13 using Mca-PQG1 peptide substrate assessed as substrate cleavage after 2 to 4 hrs
Cytochrome P450 3A4 = Cytochrome P450 3A4 (Homo sapiens, UniProt P08684); experiment: Inhibition of human CYP3A4; assay type: ADME
Cytochrome P450 2C9 = Cytochrome P450 2C9 (Homo sapiens, UniProt P11712); experiment: Inhibition of human CYP2C9; assay type: ADME
[9] = Clearance in Sprague-Dawley rat; assay type: ADME, organism-based; conditions: in vivo
[10] = Cmax in Sprague-Dawley rat at 10 mg/kg, po; assay type: ADME, organism-based; parameters: dose 10 mg/kg, route oral; conditions: in vivo
Cytochrome P450 2D6 = Cytochrome P450 2D6 (Homo sapiens, UniProt P10635); experiment: Inhibition of human CYP2D6; assay type: ADME
[11] = target: 72 kDa type IV collagenase (Homo sapiens, UniProt P08253); experiment: Inhibition of human MMP2 using Mca-PQG1 peptide substrate assessed as substrate cleavage after 2 to 4 hrs
[12] = target: Matrix metalloproteinase-14 (Homo sapiens, UniProt P50281); experiment: Inhibition of human MMP14 using Mca-PQG1 peptide substrate assessed as substrate cleavage after 2 to 4 hrs
[13] = AUC in Sprague-Dawley rat at 10 mg/kg, po; assay type: ADME, organism-based; parameters: dose 10 mg/kg, route oral; conditions: plasma
[14] = Plasma concentration in rat at 10 mg/kg, po after 2 hrs; assay type: ADME, organism-based; parameters: dose 10 mg/kg, route oral
[15] = Tmax in Sprague-Dawley rat at 10 mg/kg, po; assay type: ADME, organism-based; parameters: dose 10 mg/kg, route oral; conditions: in vivo
[16] = Plasma concentration in rat at 10 mg/kg, po after 8 hrs; assay type: ADME, organism-based; parameters: dose 10 mg/kg, route oral
Rattus norvegicus [17] = species: Rattus norvegicus; experiment: Reduction in meniscal tear-induced osteoarthritis total joint score in chronic BID Lewis rat surgical model; assay type: functional, organism-based
[18] = target: Disintegrin and metalloproteinase domain-containing protein 17 (Homo sapiens, UniProt P78536); experiment: Inhibition of human TACE using Mca-PQG1 peptide substrate assessed as substrate cleavage after 2 to 4 hrs
Disintegrin and metalloproteinase domain-containing protein 17, sequence (P78536 whole entry, the tested form may be a part): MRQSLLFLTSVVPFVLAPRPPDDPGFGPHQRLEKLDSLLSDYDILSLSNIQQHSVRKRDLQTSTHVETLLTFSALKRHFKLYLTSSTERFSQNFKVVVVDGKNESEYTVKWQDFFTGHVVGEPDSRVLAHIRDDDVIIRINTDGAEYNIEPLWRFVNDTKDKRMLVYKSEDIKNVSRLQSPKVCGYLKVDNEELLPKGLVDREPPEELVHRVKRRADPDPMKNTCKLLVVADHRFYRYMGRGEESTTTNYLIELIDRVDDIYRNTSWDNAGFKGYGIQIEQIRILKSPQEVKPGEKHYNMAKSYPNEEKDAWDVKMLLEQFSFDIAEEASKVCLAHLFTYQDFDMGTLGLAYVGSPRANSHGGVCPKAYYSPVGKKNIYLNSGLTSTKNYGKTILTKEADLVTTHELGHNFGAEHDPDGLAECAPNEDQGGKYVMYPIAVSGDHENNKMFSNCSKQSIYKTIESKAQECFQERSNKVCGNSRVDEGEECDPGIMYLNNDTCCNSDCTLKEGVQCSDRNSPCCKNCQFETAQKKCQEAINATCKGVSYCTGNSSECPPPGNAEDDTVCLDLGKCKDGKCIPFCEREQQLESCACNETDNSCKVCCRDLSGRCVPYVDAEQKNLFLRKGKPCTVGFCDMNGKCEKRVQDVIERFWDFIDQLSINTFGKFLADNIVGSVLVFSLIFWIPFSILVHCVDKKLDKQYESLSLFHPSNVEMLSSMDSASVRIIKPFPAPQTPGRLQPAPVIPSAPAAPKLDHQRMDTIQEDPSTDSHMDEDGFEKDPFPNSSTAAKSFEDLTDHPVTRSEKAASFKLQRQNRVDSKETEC

Stromelysin-1, sequence (P08254 whole entry): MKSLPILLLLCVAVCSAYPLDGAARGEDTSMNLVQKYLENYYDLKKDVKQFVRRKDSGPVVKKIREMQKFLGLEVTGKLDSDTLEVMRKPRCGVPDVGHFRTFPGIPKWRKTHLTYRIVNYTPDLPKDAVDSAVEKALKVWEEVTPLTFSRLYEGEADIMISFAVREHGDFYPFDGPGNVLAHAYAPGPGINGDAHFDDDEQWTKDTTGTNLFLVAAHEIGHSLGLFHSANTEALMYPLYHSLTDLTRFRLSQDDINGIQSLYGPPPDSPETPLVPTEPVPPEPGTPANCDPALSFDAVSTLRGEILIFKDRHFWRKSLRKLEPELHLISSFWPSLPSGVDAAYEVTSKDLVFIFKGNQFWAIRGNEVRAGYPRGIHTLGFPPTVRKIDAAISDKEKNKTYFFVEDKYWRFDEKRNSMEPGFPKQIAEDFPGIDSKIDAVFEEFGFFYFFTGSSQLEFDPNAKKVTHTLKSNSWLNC
72 kDa type IV collagenase, sequence (P08253 whole entry): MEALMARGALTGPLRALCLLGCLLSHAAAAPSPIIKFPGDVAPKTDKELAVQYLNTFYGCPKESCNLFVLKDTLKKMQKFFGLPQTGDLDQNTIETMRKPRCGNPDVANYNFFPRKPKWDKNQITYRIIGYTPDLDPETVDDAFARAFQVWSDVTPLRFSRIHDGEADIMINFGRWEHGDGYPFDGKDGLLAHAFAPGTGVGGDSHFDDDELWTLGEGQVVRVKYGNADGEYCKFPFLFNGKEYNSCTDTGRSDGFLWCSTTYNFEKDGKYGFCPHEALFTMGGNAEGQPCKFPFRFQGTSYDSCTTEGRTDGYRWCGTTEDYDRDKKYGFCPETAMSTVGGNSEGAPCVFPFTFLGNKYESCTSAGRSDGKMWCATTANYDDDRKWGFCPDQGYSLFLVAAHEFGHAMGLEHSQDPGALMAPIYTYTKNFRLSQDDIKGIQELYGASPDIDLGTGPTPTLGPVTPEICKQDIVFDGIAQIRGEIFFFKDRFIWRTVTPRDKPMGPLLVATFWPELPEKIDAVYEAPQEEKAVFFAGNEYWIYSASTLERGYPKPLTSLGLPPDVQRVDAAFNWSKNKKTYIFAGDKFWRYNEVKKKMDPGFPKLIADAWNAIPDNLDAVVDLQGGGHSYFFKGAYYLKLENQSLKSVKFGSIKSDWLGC
Cytochrome P450 3A4, sequence (P08684 whole entry): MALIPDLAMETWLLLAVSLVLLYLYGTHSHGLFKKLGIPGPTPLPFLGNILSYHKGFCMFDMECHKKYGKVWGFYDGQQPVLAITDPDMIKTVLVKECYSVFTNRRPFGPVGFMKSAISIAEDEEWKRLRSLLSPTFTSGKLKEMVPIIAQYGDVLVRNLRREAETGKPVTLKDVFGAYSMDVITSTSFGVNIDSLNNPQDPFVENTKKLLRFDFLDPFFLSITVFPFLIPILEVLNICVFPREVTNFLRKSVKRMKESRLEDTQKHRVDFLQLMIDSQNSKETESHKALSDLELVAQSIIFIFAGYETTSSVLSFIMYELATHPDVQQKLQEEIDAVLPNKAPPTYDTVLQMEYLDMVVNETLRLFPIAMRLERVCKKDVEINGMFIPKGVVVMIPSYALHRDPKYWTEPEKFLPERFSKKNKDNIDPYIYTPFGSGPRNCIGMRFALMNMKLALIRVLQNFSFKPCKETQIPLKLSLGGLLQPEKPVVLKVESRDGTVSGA
Cytochrome P450 2C9, sequence (P11712 whole entry): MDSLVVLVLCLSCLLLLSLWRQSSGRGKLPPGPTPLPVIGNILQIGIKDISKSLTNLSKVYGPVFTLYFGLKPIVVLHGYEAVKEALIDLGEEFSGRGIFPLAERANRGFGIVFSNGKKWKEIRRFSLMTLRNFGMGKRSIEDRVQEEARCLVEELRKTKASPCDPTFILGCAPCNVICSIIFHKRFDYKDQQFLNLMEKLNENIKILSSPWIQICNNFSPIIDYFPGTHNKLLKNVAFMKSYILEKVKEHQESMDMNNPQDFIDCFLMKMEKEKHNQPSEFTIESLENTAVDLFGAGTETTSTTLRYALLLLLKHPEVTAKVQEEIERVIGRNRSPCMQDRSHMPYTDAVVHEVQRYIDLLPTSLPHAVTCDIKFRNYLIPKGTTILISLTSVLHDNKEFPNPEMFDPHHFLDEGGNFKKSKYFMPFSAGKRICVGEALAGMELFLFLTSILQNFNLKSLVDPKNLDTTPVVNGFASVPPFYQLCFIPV
Cytochrome P450 2D6, sequence (P10635 whole entry): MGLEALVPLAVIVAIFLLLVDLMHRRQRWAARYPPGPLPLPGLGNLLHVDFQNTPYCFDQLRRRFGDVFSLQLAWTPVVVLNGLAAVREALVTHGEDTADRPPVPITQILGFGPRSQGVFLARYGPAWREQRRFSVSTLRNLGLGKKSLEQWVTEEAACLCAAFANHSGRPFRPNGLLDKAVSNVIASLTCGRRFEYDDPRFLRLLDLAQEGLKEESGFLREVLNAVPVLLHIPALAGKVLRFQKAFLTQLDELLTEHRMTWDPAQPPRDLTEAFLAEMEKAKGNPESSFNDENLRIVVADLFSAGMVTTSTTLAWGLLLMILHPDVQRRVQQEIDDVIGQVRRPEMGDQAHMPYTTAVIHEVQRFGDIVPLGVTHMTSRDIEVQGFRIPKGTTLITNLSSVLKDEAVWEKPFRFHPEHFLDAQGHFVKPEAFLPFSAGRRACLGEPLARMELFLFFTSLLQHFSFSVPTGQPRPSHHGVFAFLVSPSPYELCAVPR

| Compound | IC50 [1] | IC50 [2] | IC50 [3] | bioavailability [4] | metabolised at 0.5 h [5] | IC50 (Stromelysin-1) | metabolised at 0.5 h [6] | half-life [7] | IC50 (Collagenase 3) | clearance [9] | Cmax [10] | IC50 [11] | IC50 [12] | AUC [13] | concentration at 2 h [14] | Tmax [15] | concentration at 8 h [16] | IC50 [18] | other results |
| --- | --- | --- | --- | --- | --- | --- | --- | --- | --- | --- | --- | --- | --- | --- | --- | --- | --- | --- | --- |
| C[C@]1(CNC(=O)c2cc3cc(Cl)ccc3o2)NC(=O)NC1=O (racemic) | 2400 nM | 110 nM | 150 nM |  |  |  |  |  |  |  |  |  |  |  |  |  |  |  |  |
| Cn1ccnc1[C@]1(CNC(=O)c2cc3cc(Cl)ccc3o2)NC(=O)NC1=O | 110 nM | 5 nM | 9 nM | 58% | 17% | 38 µM | 13% | 252 min | 4.2 µM | 13 mL/min/kg | 4100 ng/mL | 7.5 µM | > 100 µM | 8100 ng·h/mL | 2200 ng/mL | 19.8 min | 80 ng/mL |  | ED50 (Rattus norvegicus [8]): 75 mg/kg; inhibition (INH) (Cytochrome P450 3A4): < 5%; inhibition (INH) (Cytochrome P450 2C9): < 5%; inhibition (INH) (Cytochrome P450 2D6): < 5% |
| Cn1ccnc1[C@]1(CNC(=O)c2cc3cc(C(F)(F)F)ccc3o2)NC(=O)NC1=O | 35 nM | 4 nM | 4 nM | 25% | < 5% | 69 µM | 7% | 258 min | 30 µM | 4.8 mL/min/kg | 3200 ng/mL | 11 µM | 86 µM | 8500 ng·h/mL | 1100 ng/mL | 96 min | 90 ng/mL | 10 µM | inhibition (Rattus norvegicus [17]): Dose-dependent effect; ED50 (Rattus norvegicus [8]): 30 mg/kg; inhibition (INH) (Cytochrome P450 3A4): < 5%; inhibition (INH) (Cytochrome P450 2C9): < 5%; inhibition (INH) (Cytochrome P450 2D6): < 5% |
| C[C@]1(CNC(=O)COc2ccc(Cl)cc2)NC(=O)NC1=O | 620 nM | 74 nM | 350 nM |  |  | 50 µM |  |  | 7 µM |  |  | 24 µM | > 50 µM |  | 430 ng/mL |  | 50 ng/mL |  |  |
| C[C@@]1(O)CCCN(S(=O)(=O)c2ccc(OCc3ccc(F)cc3Cl)cc2)[C@H]1C(=O)NO | 18 nM | 1 nM | 1 nM |  |  | 0.003 µM |  |  | 0.001 µM |  |  | 0.005 µM | 0.15 µM |  | 1900 ng/mL |  | 840 ng/mL | 0.007 µM |  |
| Cn1nccc1[C@]1(CNC(=O)c2cc3cc(Cl)ccc3o2)NC(=O)NC1=O | 530 nM | 22 nM | 19 nM |  |  | 64 µM |  |  | 4.7 µM |  |  | 7.1 µM | 8.6 µM |  |  |  |  |  |  |
| O=C1NC(=O)[C@](CNC(=O)c2cc3cc(Cl)ccc3o2)(c2ccccc2)N1 | 420 nM | 12 nM | 22 nM |  |  | 3 µM |  |  | 0.72 µM |  |  | 2.1 µM | 3.5 µM |  | < 200 ng/mL |  |  | 5.4 µM |  |
| O=C1NC(=O)[C@](CNC(=O)c2cc3cc(Cl)ccc3o2)(c2nccs2)N1 |  |  |  | 72% | 16% |  | 16% | 192 min |  | 4 mL/min/kg | 6900 ng/mL |  |  | 28000 ng·h/mL | 4300 ng/mL | 19.8 min | 1300 ng/mL |  |  |
| Cc1cccnc1[C@]1(CNC(=O)c2cc3cc(Cl)ccc3o2)NC(=O)NC1=O (racemic) | 1700 nM | 17 nM | 19 nM |  |  | 20 µM |  |  | 3.1 µM |  |  | 6.1 µM | 18 µM |  |  |  |  |  |  |
